Source: US11834424B2, “Compounds useful as chaperone-mediated autophagy modulators” (ALBERT EINSTEIN COLLEGE OF MEDICINE, priority 2018, dated 2023)
Read-outs that look alike come from different tables or passages of the source.

What was measured:
[1] = Pharmacokinetics (plasma and brain levels) in ICR (CD-1) mice; format: in vivo; settings: male, mouse, mouse; for AUC(0-inf): read-out: AUCINF_obs; for MRT inf: read-out: MRTINF_obs
Protocol: ICR (CD-1) male mice were fasted at least three horns and water was available ad libitum before the study. Animals were housed in a controlled environment, target conditions: temperature 18 to 29° C., relative humidity 30 to 70%. Temperature and relative humidity was monitored daily. An electronic time controlled lighting system was used to provide a 12 h light/12 h dark cycle. 3 mice for each indicated time point. ICR (CD-1) mice were administered CA77 at 1 mg/kg i.v. and 30 mg/kg p.o. or CA77.1 at 1 mg/kg i.v. (FIG. 2A) and 10 mg/kg p.o. (FIG. 2B). Three (3) mice were included in each dosage and time group. Mice were sacrificed and plasma and brains were obtained at 0.083, 0.25, 0.50, 1.0, 2.0, 4.0, 8.0, and 24.0 hours after administration and drug concentration determined using LC-MS/MS. Brains were removed, homogenized with a tissue homogenizer in cold 5% w/v BSA in phosphate buffer saline (PBS). A 100 microliter aliquots of brain samples were dispensed in to glass culture tubes and mixed with ethyl acetate (800 μl), vortexed, and centrifuged. The organic layer was transferred to a fresh culture tube, dried under nitrogen, and reconstituted in mobile phase for quantitation. Pharmacokinetic parameters were determined by standard methods using Phoenix WinNonlin 6.3 software.
Tables 3A and 3B provide the concentrations of CA77 in ICR (CD-1) mouse plasma (3A) and mouse brain (3B) following i.v. administration of 1 mg/kg CA77. Table 3C provides the brain/plasma ratio of CA77 following i.v. administration of 1 mg/kg CA77. Shaded cells indicate data not included in statistics due to aberrant value. BLQ=Below Limit of Quantitation.
Tables 5A and 5B provide the concentrations of CA77.1 in ICR (CD-1) mouse plasma (5A) and mouse brain (5B) following i.v. administration of 1 mg/kg CA77.1. Table 5C provides the brain/plasma ratio of CA77.1 following i.v. administration of 1 mg/kg CA77.1. The plasma and brain pharmacokinetic parameters for CA77.1 are provided in Table 6. *—cells contain data not present in the statistics.

[2] = in vitro; settings: human, microsomes
Protocol: Microsome stability was determined in human, rat, and mouse, liver microsomes. Compound at 3 μM final concentration along with 0.5 mg/mL microsome protein and 1 mM NADPH was incubated for 0, 5, 15, 30 and 60 min. As a negative control, test compound was incubated with microsomes in the absence of NADPH. Samples were quenched with methanol and centrifuged for 25 min at 2500 rpm to precipitate proteins. Supernatants were analyzed (N=3) by LC-MS/MS. The In peak area ratio (compound peak area/internal standard peak area) was plotted against time and the gradient of the line determined the elimination rate constant [k=(−1)(slope)].
R^2 is the correlation coefficient of the linear regression for the determination of kinetic constant. T1/2 is the half life and CLint (mic) is the intrinsic clearance. CLint(liver)=CLint (mic)*mg microsomal protein/g liver weight*g liver weight/kg body weight. Liver weight/kg body weight is 20 g/kg for human.

[3] = ICR (CD-1), brain/plasma, iv, 1 mg/kg, i.v. 1 mg/kg, read-out: Brain/Plasma ratio, Mean
[4] = ICR (CD-1), brain/plasma, iv, 1 mg/kg, i.v. 1 mg/kg, read-out: Brain/Plasma ratio, individual animal
[5] = ICR (CD-1), plasma, iv, 1 mg/kg, i.v. 1 mg/kg, mouse plasma, read-out: Conc. in plasma, Mean
[6] = ICR (CD-1), plasma, iv, 1 mg/kg, i.v. 1 mg/kg, mouse plasma, read-out: Conc. in plasma, individual animal
[7] = plasma, iv, i.v. 1 mg/kg, ICR (CD-1) mice
[8] = plasma, po, p.o. 10 mg/kg, ICR (CD-1) mice

Kp at 0.083 h [1, 3]: 5.64
Kp at 0.083 h [1, 4]: 5.81
Kp at 0.25 h [1, 3]: 6.19
Kp at 0.25 h [1, 4]: 6.54
Kp at 0.5 h ([1]; ICR (CD-1), brain/plasma, iv, 1 mg/kg, i.v. 1 mg/kg, 0.50 h, read-out: Brain/Plasma ratio, Mean): 3.92
Kp at 1 h [1, 3]: 7.52
Kp at 1 h [1, 4]: 5.44
Kp at 2 h ([1]; ICR (CD-1), brain/plasma, iv, 1 mg/kg, i.v. 1 mg/kg, 2.00 h, read-out: Brain/Plasma ratio, Mean): 6.22
Kp at 4 h ([1]; ICR (CD-1), brain/plasma, iv, 1 mg/kg, i.v. 1 mg/kg, 4.00 h, read-out: Brain/Plasma ratio, Mean): 4
Kp at 8 h [1, 3]: 2.23
Kp at 8 h [1, 4]: 1.79
Kp at 24 h [1, 3]: 0
Kp at 24 h [1, 4]: 0
concentration at 0.083 h [1, 5]: 190 ng/mL
concentration at 0.083 h [1, 6]: 177 ng/mL
concentration at 0.25 h [1, 5]: 129 ng/mL
concentration at 0.25 h [1, 6]: 132 ng/mL
concentration at 0.5 h ([1]; ICR (CD-1), plasma, iv, 1 mg/kg, i.v. 1 mg/kg, mouse plasma, 0.50 h, read-out: Conc. in plasma, Mean): 276 ng/mL
concentration at 1 h [1, 5]: 91 ng/mL
concentration at 1 h [1, 6]: 110 ng/mL
concentration at 2 h ([1]; ICR (CD-1), plasma, iv, 1 mg/kg, i.v. 1 mg/kg, mouse plasma, 2.00 h, read-out: Conc. in plasma, Mean): 46 ng/mL
concentration at 4 h ([1]; ICR (CD-1), plasma, iv, 1 mg/kg, i.v. 1 mg/kg, mouse plasma, 4.00 h, read-out: Conc. in plasma, Mean): 6 ng/mL
concentration at 8 h [1, 5]: 2 ng/mL
concentration at 8 h [1, 6]: 2.74 ng/mL
concentration at 24 h [1, 5]: 1 ng/mL
concentration at 24 h [1, 6]: 0.556 ng/mL
AUC(0-t) [1, 7]: 314 ng·h/mL
half-life [1, 7]: 1.39 h
AUC(0-inf) [1, 7]: 315 ng·h/mL
MRT inf [1, 7]: 2 h
bioavailability ([1]; plasma, oral, p.o. 10 mg/kg vs i.v. 1 mg/kg, ICR (CD-1) mice): 46.4%
AUC(0-t) [1, 8]: 1460 ng·h/mL
half-life [1, 8]: 2.78 h
AUC(0-inf) [1, 8]: 1460 ng·h/mL
Cmax ([1]; plasma, po, p.o. 10 mg/kg, ICR (CD-1) mice, read-out: Cmax): 464 ng/mL
MRT inf [1, 8]: 3 h
Tmax ([1]; plasma, po, p.o. 10 mg/kg, ICR (CD-1) mice, read-out: Tmax): 1 h
half-life at 3 μM [2]: 0.343 h
CLint(mic) ([2]; 3 μM): 67.2 µL/min/mg
Remaining (T = 60 min) ([2]; 1 h, 3 μM): 10.8%
CLint scaled at 3 μM ([2]; CLint(liver)): 60.5 mL/min/kg
SMILES: CC(=O)Nc1ccc(-c2cnc3cc(Cl)ccc3n2)cc1 [CA77.1, N-(4-(6-chloroquinoxalin-2-yl)phenyl)acetamide]
